Assay results taken from ChEMBL document CHEMBL1201862, “PubChem BioAssay data set” (2004).
Active and inactive are the calls of the source. Cut-off read from the data, not from the text of the source, for most assays here: actives have a measured EC50 and inactives only a lower limit.

What was measured:
[1] = target: T1, Calpain-2 catalytic subunit (Sus scrofa, UniProt P43367); test: m-calpain protease blockers, concentration series – biochemical, fluorogenic peptide substrate, dose response (AID 1420); format: functional
T1 sequence (P43367 whole entry): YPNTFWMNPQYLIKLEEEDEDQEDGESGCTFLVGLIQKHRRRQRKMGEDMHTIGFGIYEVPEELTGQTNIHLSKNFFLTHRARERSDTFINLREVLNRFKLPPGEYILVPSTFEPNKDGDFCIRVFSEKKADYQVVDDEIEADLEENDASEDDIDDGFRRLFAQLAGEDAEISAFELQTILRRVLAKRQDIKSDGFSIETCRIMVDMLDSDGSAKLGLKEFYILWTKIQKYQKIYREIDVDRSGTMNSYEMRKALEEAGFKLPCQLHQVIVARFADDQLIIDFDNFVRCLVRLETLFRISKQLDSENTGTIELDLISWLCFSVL

Protein skinhead-1 = target: T2, Protein skinhead-1 (Caenorhabditis elegans, UniProt P34707); format: functional
T2 sequence (P34707 whole entry): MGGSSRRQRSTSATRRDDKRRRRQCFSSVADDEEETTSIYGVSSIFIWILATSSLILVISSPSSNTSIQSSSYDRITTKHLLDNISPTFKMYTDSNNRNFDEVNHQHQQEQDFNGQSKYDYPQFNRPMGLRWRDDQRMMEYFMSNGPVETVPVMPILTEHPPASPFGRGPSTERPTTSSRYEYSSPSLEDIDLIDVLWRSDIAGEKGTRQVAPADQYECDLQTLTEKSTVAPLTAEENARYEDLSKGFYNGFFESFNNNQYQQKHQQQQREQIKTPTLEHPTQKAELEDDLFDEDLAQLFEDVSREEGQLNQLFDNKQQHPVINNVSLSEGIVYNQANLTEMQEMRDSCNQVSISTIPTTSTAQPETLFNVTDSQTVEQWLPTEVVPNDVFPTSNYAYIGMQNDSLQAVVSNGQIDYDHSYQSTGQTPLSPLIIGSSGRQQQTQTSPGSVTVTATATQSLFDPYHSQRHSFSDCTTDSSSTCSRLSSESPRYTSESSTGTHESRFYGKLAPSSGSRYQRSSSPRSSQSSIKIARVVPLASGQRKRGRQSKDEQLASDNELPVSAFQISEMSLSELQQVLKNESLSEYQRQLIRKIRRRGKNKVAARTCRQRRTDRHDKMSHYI

Nonstructural protein 1 = Nonstructural protein 1 (Influenza A virus, UniProt Q194T2); format: functional, Influenza A virus (A/California/07/2009(H1N1))
[2] = target: T3, Heat shock factor protein 1 (Mus musculus, UniProt P38532); test: enhancement of HSF1-driven luciferase signal – cell-based, NIH3T3, luminescence, dose retest, confirmation (AID 435004); format: functional;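 note: stress induced by proteasome inhibitor MG132 added 30 min after compound; luciferase reporter driven by HSF1 response element in NIH3T3 cells; actives raise luminescence as potentiators of the MG132 stress response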
T3 sequence (P38532 whole entry): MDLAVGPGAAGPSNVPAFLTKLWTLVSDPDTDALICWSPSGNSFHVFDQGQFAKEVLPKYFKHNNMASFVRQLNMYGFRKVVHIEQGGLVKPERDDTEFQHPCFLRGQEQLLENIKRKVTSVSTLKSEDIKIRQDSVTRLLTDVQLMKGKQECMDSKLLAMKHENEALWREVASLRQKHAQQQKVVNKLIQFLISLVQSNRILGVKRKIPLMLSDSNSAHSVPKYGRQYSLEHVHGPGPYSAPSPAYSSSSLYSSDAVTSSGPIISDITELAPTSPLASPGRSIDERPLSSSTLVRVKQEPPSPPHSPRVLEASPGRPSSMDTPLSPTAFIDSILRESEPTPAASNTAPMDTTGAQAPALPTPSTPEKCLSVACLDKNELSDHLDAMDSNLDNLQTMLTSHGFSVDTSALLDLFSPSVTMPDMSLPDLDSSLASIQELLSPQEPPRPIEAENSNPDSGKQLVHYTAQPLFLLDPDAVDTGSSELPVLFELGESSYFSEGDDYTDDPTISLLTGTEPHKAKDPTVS

INS1 = test: INS-1E survival protection against cytokine death – cell-based, luminescence, retest, dose response (AID 449756); format: functional; details: Rattus norvegicus;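 note: cell death triggered by IL-1 beta plus TNF-alpha plus IFN-gamma mixture; protective hits raise ATP signal compared with cytokine alone wells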
[3] = target: T4, RNA-binding protein pos-1 (Caenorhabditis elegans, UniProt G5EF15); test: disruptors of C. elegans POS-1 RNA interaction – biochemical, fluorescence polarization, dose response (AID 1964);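 note: purified POS-1 fused to maltose binding protein made in E. coli; potency of compounds blocking POS-1 binding to fluorescent RNA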
T4 sequence (G5EF15 whole entry): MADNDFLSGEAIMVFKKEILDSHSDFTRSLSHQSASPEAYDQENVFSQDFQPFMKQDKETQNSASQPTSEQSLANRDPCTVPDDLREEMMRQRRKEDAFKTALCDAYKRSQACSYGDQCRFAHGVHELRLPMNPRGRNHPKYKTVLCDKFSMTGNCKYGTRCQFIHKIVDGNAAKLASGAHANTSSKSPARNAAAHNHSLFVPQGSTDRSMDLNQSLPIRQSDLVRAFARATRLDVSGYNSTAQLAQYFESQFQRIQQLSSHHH

[4] = target: T5, Zinc finger protein mex-5 (Caenorhabditis elegans, UniProt Q9XUB2); test: potency of MEX-5 RNA-binding blockers – biochemical, C. elegans, fluorescence polarization, dose response (AID 1960)
T5 sequence (Q9XUB2 whole entry): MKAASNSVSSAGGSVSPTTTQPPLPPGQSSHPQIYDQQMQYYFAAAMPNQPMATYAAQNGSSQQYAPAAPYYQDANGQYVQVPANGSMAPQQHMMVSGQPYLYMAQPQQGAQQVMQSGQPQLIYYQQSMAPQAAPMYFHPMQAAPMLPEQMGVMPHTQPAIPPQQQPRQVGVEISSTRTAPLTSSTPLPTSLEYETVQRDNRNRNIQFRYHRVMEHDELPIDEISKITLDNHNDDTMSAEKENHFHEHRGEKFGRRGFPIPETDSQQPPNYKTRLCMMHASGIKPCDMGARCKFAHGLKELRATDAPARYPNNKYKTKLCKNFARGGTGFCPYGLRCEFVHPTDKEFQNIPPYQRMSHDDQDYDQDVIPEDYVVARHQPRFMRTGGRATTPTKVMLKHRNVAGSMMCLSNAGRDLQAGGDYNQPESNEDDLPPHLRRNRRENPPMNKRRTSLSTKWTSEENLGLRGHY

[5] = Luminescence Cell-Based Dose Retest to Confirm Inhibitors of Cancer Stem Cells. [Related pubchem assays (depositor defined):AID2717, AID2721]; format: functional; details: Homo sapiens
[6] = Trypanosoma cruzi growth suppression in host cells – NIH3T3 host cells, beta-gal luminescence, confirmation (AID 2044); format: functional, cell-based;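 note: intracellular parasites grown in NIH/3T3 mouse fibroblasts as host cells; luminescent beta-galactosidase reporter signal from transgenic T. cruzi replicating inside host cells; inhibitors lower the luminescence signal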
[7] = NIH3T3 cell viability loss – ATP luminescence, mouse fibroblasts, counter-screen, dose response (AID 2010); format: functional, cell-based;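 note: cells exposed to compound for about 90 hours before reading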
[8] = target: T6, Replicative DNA helicase DnaB (Mycobacterium tuberculosis, UniProt P9WMR3); test: DnaB intein splicing inhibitors, dose response, biochemical, cell-free fluorescence (AID 449749); format: functional
T6 sequence (P9WMR3 whole entry): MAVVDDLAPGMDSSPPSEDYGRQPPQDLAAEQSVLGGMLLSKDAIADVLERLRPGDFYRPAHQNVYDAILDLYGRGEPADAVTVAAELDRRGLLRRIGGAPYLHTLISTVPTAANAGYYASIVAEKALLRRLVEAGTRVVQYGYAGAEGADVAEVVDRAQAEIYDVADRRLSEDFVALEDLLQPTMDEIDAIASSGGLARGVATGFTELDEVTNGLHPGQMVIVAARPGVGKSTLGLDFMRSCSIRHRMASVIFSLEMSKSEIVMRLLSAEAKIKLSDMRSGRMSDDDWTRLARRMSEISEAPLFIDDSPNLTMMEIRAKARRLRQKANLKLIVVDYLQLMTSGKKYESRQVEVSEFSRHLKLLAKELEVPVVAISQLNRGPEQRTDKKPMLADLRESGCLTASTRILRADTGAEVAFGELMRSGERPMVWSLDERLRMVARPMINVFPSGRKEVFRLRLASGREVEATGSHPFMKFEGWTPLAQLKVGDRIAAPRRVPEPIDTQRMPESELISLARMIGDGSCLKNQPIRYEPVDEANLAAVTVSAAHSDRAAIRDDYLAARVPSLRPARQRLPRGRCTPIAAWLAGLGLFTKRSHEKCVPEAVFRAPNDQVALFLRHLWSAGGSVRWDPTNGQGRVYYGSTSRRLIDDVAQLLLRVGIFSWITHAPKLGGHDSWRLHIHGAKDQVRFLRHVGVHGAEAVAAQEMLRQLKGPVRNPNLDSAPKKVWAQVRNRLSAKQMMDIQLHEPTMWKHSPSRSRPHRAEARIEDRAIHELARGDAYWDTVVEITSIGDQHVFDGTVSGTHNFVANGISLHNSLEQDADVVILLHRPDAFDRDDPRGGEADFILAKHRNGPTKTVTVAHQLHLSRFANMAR

Protein RecA = target: T7, Protein RecA (Mycobacterium tuberculosis, UniProt P9WHJ3); test: Fluorescence Cell-Free Homogeneous Dose Retest to Identify Inhibitors of RecA-Intein Splicing Activity. [Related pubchem assays (depositor defined):AID2097, AID2223, AID489010, AID492950]; format: functional
T7 sequence (P9WHJ3 whole entry): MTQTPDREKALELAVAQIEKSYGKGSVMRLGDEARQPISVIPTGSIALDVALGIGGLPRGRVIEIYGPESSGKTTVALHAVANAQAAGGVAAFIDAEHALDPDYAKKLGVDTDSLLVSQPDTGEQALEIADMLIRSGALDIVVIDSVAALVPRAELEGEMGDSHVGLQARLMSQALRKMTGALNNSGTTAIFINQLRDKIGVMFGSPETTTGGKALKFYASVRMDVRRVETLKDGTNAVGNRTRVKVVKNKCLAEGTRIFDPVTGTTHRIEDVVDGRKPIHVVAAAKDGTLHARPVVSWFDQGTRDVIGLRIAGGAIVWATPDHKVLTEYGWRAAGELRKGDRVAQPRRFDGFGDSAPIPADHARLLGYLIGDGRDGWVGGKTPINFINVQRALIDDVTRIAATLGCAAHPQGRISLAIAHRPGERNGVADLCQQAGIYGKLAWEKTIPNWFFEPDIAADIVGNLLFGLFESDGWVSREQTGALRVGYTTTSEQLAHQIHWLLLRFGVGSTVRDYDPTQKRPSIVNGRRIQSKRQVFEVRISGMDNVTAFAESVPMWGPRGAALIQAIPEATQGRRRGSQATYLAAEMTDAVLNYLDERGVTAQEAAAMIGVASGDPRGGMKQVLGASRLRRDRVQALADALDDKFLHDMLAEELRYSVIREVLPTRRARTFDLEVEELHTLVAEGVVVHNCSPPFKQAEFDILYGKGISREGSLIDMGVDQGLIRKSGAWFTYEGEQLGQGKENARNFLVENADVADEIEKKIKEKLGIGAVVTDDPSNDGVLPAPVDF

[9] = target: Luciferin 4-monooxygenase (Photinus pyralis, UniProt P08659); test: inhibition of purified Photinus pyralis luciferase – biochemical, luminescence, dose response (AID 1891)
[10] = Luminescence Cell-Based Dose Confirmation HTS to Identify Inhibitors of Platelet Dense Granule Release. [Related pubchem assays: 1663 (Primary HTS), 1678 (Summary of Project)]; format: functional

Chain of Nonstructural protein 1 (Q194T2 whole entry): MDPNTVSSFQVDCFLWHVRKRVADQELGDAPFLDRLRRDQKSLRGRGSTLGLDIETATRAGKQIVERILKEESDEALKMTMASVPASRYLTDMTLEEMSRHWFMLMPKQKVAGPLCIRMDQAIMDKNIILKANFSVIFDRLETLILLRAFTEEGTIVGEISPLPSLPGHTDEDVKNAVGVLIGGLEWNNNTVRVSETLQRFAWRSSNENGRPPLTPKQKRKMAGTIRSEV
Chain of Luciferin 4-monooxygenase (P08659 whole entry): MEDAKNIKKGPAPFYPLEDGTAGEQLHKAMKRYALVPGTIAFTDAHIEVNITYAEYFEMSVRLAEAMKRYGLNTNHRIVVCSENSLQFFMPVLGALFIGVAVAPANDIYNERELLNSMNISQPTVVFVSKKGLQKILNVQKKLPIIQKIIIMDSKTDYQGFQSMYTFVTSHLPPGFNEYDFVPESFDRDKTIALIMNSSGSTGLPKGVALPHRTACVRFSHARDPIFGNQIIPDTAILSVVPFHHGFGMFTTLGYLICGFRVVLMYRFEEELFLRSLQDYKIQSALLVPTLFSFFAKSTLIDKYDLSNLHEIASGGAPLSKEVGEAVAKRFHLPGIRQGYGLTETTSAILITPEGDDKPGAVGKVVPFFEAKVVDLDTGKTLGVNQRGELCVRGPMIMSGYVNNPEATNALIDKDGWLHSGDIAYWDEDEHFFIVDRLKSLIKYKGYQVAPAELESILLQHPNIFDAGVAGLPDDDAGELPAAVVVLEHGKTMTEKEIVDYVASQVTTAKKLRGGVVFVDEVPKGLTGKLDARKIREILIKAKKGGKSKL

## Cc1nn(-c2ccc(F)cc2)c2sc(C(=O)N3CCCCCC3)cc12
[1]
  IC50: > 50 µM (not active)
Protein skinhead-1
  IC50: > 100 µM (inactive)

## O=[N+]([O-])c1cc(Br)c2nsnc2c1N1CCOCC1
Nonstructural protein 1
  IC50: 27.5 µM (active)

## COCCNC(=S)N/N=C/c1ccc(N2CCOCC2)cc1
[2]
  EC50: > 260 µM (inactive)

## COC(=O)c1cccc(C(=O)N2CCCC(C(=O)c3ccccc3OC)C2)c1 (stereo unspecified)
[2]
  EC50: > 260 µM (inactive)

## Cc1cccc(-n2cnc(C(=O)NN=C(S)Nc3ccc(Cl)cc3)c2)n1
Nonstructural protein 1
  IC50: 8.22 µM (active)

## NC(=S)N/N=C/c1ccccc1O
Nonstructural protein 1
  IC50: 14.1 µM (active)
INS1
  AC50: 0.945 µM (active)

## O=[N+]([O-])c1cc(/C=N/Nc2nc(N3CCCCC3)nc(N3CCCCC3)n2)ccc1O
Nonstructural protein 1
  IC50: > 100 µM (active)

## COc1ccc(C2=CC(=O)CC(c3ccc(F)cc3)C2)cn1 (stereo unspecified)
[2]
  EC50: > 260 µM (inactive)

## CN1CCc2c(sc3c2C(=O)NC(c2ccccn2)N3)C1 (stereo unspecified)
[3]
  EC50: 15.1 µM (active)
[4]
  EC50: 14.3 µM (active)
Nonstructural protein 1
  IC50: 13.7 µM (active)

## C=C1CCC[C@]2(C)C[C@H]3OC(=O)C(CNC(CC)CO)[C@H]3CC12 (stereo partly specified)
[2]
  EC50: > 260 µM (inactive)

## CCOC(=O)N1CCN(c2ccc(C(=O)c3cccc(F)c3)cc2)CC1
[1]
  IC50: 14.3 µM (not active)
[5]
  AC50: 3.36 µM (active)

## c1ccc(CCc2ccncc2)cc1
[6]
  EC50: 1.52 µM (active)
[7]
  EC50: > 60 µM (not active)
[2]
  EC50: > 260 µM (inactive)

## O=C(O)c1cccnc1Sc1ccccc1
[2]
  EC50: > 260 µM (inactive)

## Cc1ccccc1CCN(C(=O)Cn1nnc2ccccc21)C(C(=O)NCC1CCCO1)c1nc2ccccc2n1C (stereo unspecified)
[1]
  IC50: 29.6 µM (not active)

## COc1cc(OC)cc(-c2nnc(Sc3ccc(C=O)cc3[N+](=O)[O-])o2)c1
[2]
  EC50: > 260 µM (inactive)
[8]
  AC50: 6.58 µM (active)
Protein RecA
  EC50: 2.04 µM (active)

## COc1c(Br)cc(Br)cc1C(=O)O
[2]
  EC50: > 260 µM (inactive)

## COc1cc(C2CC(=O)Oc3c(C(CCN4CCCC(C)C4)c4ccc(N(C)C)cc4)c(OC)cc(OC)c32)cc(OC)c1OC (stereo unspecified)
Nonstructural protein 1
  IC50: 28.5 µM (active)

## COc1ccc(C(=O)NCC(=O)OCC(=O)c2ccc3c(c2)NC(=O)CO3)cc1
[2]
  EC50: > 260 µM (inactive)

## CC1CC(=O)c2cnc(NCC3CCCO3)nc2C1 (stereo unspecified)
[1]
  IC50: 6.33 µM (not active)

## CCCCC(=O)OCC(=O)c1[nH]c(C)c(C(C)=O)c1C
[9]
  EC50: > 112 µM (not active)
[10]
  EC50: 0.816 µM (active)
[1]
  IC50: 21.5 µM (not active)
